The record followed here is PubChem BioAssay AID1324 (NMMLSC, 2008).

For orientation: EC50 means the concentration giving half of the maximal effect.

Active and inactive are the calls of the source. No rule for the calls is given here.

The assay has as its target glutathione S-transferase (GST-GSH binding). As to the kind of experiment: GST–glutathione interaction disruption – biochemical, multiplex beads, flow cytometry, HPSMTB buffer, profiling panel (AID 1324).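 As to all read-outs here: glutathione beads loaded with GST-green fluorescent protein and no fluorescent Bim peptide.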 The note with it: multiplex bead flow cytometry, MCF; for percent span inhibition: hits give high values, concentration not given here.

As for `Cc1cc(NC(=O)CCCC(=O)N(CC(=O)NC2CCCCC2)c2ccccc2)no1`, the percent span inhibition entry was “inactive”.
Still for that read-out and setting: as for `Oc1ccc(C=NCC2COc3ccccc3O2)cc1` (stereo not drawn), the entry is “inactive”.
With `O=C(/C=C/c1ccc(-c2ccccc2[N+](=O)[O-])o1)c1ccc(F)cc1`, the percent span inhibition entry was “inactive”.
Same read-out and setting: as for `Cc1ccc2c(C)c(C(=O)Nc3nnc(C)s3)oc2c1`, the entry is “inactive”.
The same measure, in the same setting: as for `Cc1ccc(NN2C(=O)C=CC2=O)cc1`, the entry is “inactive”; as for `COc1cccc2c(SCC(=O)N/N=C/c3ccc(O)c(O)c3)cc(C)nc12`, “inactive”.
On to `COc1ccc(-n2c(=O)c3ccccc3c3ccccc3c2=O)c(OC)c1`, for which the EC50 entry is “inactive”.
In the case of `COc1cc(NC(=O)c2ccc3c(c2)OCO3)ccc1NC(=O)c1ccco1`, the percent span inhibition entry was “inactive”.
Same read-out and setting: as for `O=C(c1cnccn1)N(Cc1cccs1)C1(C(=O)NC2CCCCC2)CCCCC1`, the entry is “inactive”.
The same measure, in the same setting: to `Cc1cc(N)ccc1N1CCCC1` belongs “inactive”.
Consider `CSc1n[nH]c2nc3c(c(=O)n12)C1(CCCC1)Cc1ccccc1-3`, for which the percent span inhibition entry was “inactive”.
Consider `CCN1/C(=C/c2ccc3cc(C)ccc3[n+]2CC)Sc2cc(C)c(C)cc21`, for which the percent span inhibition result was “inactive”.
On the same count and under the same terms, as for `COc1ccc(NC(=O)c2ccco2)cc1NC(=O)c1ccco1`, the entry is “inactive”.
The same measure, in the same setting: to `Cc1ccc(NS(=O)(=O)c2cc(NC(=O)c3ccc4c(c3)NC(=O)CS4)ccc2C)c(C)c1` belongs “inactive”; to `CCOC(=O)C1CCN(C(=O)Nc2ccc3nc(-c4ccco4)c(-c4ccco4)nc3c2)CC1`, “inactive”.
Same read-out and setting: to `CCOc1ccc(NCc2ccccc2OCc2cccc(F)c2)cc1` belongs “inactive”; to `CCOc1cc(/C=C2/N=C(C)C(C(=O)OC)=C2O)ccc1O`, “inactive”; to `CN(CCO)c1cc(Sc2nc3ccccc3s2)c2nonc2c1[N+](=O)[O-]`, “inactive”.
Turning to `Cc1ccc(NC2=C(NC(=O)c3ccccc3)C(=O)c3ccccc3C2=O)cc1Cl`, the percent span inhibition entry is “inactive”.
The same measure, in the same setting: as for `O=C(COc1ccccc1Br)NCc1ccccn1`, the entry is “inactive”; as for `Cc1ccccc1-c1nc(-c2ccc(NC(=O)c3ccc4c(c3)OCO4)cc2)no1`, “inactive”; as for `CCN1/C(=C\c2ccc3cc(C)ccc3[n+]2CC)Sc2cc(C)c(C)cc21`, “inactive”.
Turning to `COc1cc(/C=N/Nc2nn3cnnc3c3ccccc23)ccc1O`, the EC50 was 2.36 µM.
For the compound `O=C(Cn1cncc1-c1ccc([N+](=O)[O-])cc1)Nc1ccccc1F`, the percent span inhibition result is “inactive”.
Turning to `CCOc1ccc(C2=Nn3c(nnc3-c3ccccn3)SC2)cc1`, the percent span inhibition result is “inactive”.
For `CCCCNc1nc(=S)[nH]c2cc(OC)c(OC)cc12`, the EC50 entry was “inactive”.
As to `CC(NCc1ccc(-c2ccccc2)cc1)C(O)c1ccccc1` (stereo not drawn), the percent span inhibition entry is “inactive”.
The same measure, in the same setting: as for `Cc1ccc(-c2cc(C(=O)Nc3ccccn3)c3ccccc3n2)o1`, the entry is “inactive”; as for `O=C(NNC(=O)C12CC3CC(CC(C3)C1)C2)c1ccco1`, “inactive”.
Still for that read-out and setting: as for `CCOC(=O)c1cccc(Nc2ncnc3ccccc23)c1`, the entry is “inactive”; as for `Cc1ccc(S(=O)(=O)N(C)CC(=O)N2CCc3ccccc32)cc1`, “inactive”; as for `Cc1ccc(-c2cc(C(=O)OCC(=O)N(C)C3CCS(=O)(=O)C3)c3ccccc3n2)o1` (stereo not drawn), “inactive”.
Turning to `CCN(CC)c1ccc(NC(=O)COc2ccccc2C#N)cc1S(=O)(=O)Nc1ccccc1OC`, the percent span inhibition result was “inactive”.
Regarding `COCCNC(=O)CN1CCC(NC(=O)Nc2ccccc2)CC1`, the percent span inhibition entry was “inactive”.
`CCOc1ccccc1NC(=O)CSc1nnc2ccc(-c3cccnc3)nn12`: the percent span inhibition result was “inactive”.
Same read-out and setting: to `CCOc1ccc2nc(SCC(=O)N3c4ccccc4Sc4ccccc43)c(C#N)cc2c1` belongs “inactive”.
Same read-out and setting: as for `CCN(C(=O)COC(=O)c1cc(-c2ccc(C)o2)nc2ccccc12)C1CCS(=O)(=O)C1` (stereo not drawn), the entry is “inactive”; as for `O=C(O)c1ccccc1NSc1ccccc1[N+](=O)[O-]`, “inactive”.
As for `Fc1ccc(Cn2nnnc2C(c2ccc(Cl)cc2)N2CCSCC2)cc1` (stereo not drawn), the percent span inhibition result was “inactive”.
For the compound `CC1=CC(=O)c2c(O)ccc(O)c2C1=O`, the EC50 entry is “inactive”.
`Cc1ccc(S(=O)(=O)N2CCCCC2)cc1NC(=O)COC(=O)c1ccccc1F`: the percent span inhibition entry is “inactive”.
The same measure, in the same setting: to `Cc1cc(C)cc(-n2c(C)nc3cc(C(=O)O)ccc32)c1` belongs “inactive”.
For the compound `Cc1ccnc(Nc2nc(-c3c(C)nc4sccn34)cs2)c1`, the EC50 entry was “inactive”.
`Clc1ccc2c(N/N=C/c3ccccc3Br)ccnc2c1`: the percent span inhibition result was “inactive”.
On to `CN1CCc2cccc3c2[C@H]1Cc1ccc(O)c(O)c1-3`, for which the percent span inhibition entry is “inactive”.
As to `COc1ccc(C(=S)N2CCCCCC2)cc1`, the percent span inhibition result was “inactive”.
Still for that read-out and setting: to `CCNCc1cc(Br)c(OCC(=O)Nc2ccccc2)c(OC)c1` belongs “inactive”; to `Cc1cc(C)c(C)c(S(=O)(=O)N2CCN(CC(=O)NC(=O)NCc3ccccc3)CC2)c1C`, “inactive”; to `CCOC(=O)CSc1nnc(-c2cccc(Cl)c2)n1CC`, “inactive”.
The same measure, in the same setting: as for `Nc1ccc(N2CCCCCC2)cc1`, the entry is “inactive”.
As for `CCOC(=O)c1nc(Nc2ccc(C(=O)OC)cc2)c2ccccc2n1`, the percent span inhibition result was “inactive”.
As to `CCNC(=S)Nc1cc(OCC)c(NC(=O)c2cccs2)cc1OCC`, the percent span inhibition result is “inactive”.
On the same count and under the same terms, as for `CCOc1cc(CNc2ccc(N3CCCCC3)cc2)cc(Br)c1OCC(=O)NC(C)(C)C`, the entry is “inactive”; as for `Cc1noc(C)c1CN1C(=O)NC(Cc2ccccc2)(Cc2ccccc2)C1=O`, “inactive”; as for `CCNC(=O)N1c2ccc(OCC)cc2C(C)=CC1(C)C`, “inactive”.
`CC(C(=O)Nc1cc([N+](=O)[O-])ccc1Cl)N1CCN(c2ccc(O)cc2)CC1` (stereo not drawn): the percent span inhibition result was “inactive”.
`C/C(=N\NC(=O)COc1ccc(C(C)(C)C)cc1)c1ccc2c(c1)OCCO2`: the percent span inhibition entry was “inactive”.
`Cc1ccc(-c2cc(-c3ccc(C)o3)nc(N)c2C#N)cc1`: the percent span inhibition result is “inactive”.
In the case of `COc1ccc2cc(CN(CCc3ccccc3)Cc3nnnn3CC3CCCO3)c(=O)[nH]c2c1` (stereo not drawn), the percent span inhibition result was “inactive”.
Take `CCOc1cc(S(=O)(=O)N2CCCCC2)ccc1F`: the percent span inhibition result is “inactive”.
Turning to `CCOCCOc1nc2c(c(=O)n(C)c(=O)n2C)n1CCc1ccccc1`, the percent span inhibition entry is “inactive”.
Turning to `O=c1[nH]c2ccc(N=Cc3c(O)ccc4cc(Br)ccc34)cc2[nH]1`, the percent span inhibition result is “inactive”.
Regarding `COc1ccc(N=C2NC(=O)/C(=C\C=C\c3ccco3)S2)cc1`, the percent span inhibition entry is “inactive”.
The same measure, in the same setting: to `CN=c1scc(C)n1/N=C/c1ccc(O)c(O)c1O` belongs “inactive”; to `COc1cccc(N2CC(C(=O)Nc3nnc(SCC(=O)c4ccccc4)s3)CC2=O)c1` (stereo not drawn), “inactive”; to `COc1cc(C=Nc2cccc(C)c2)c(O)c([N+](=O)[O-])c1`, “inactive”.
On the same count and under the same terms, to `O=C(NCc1ccccc1)c1ccc2nc(-c3ccco3)c(-c3ccco3)nc2c1` belongs “inactive”.
Regarding `COc1ccc(NS(=O)(=O)c2cc(NC(=O)c3ccc(C)o3)ccc2N2CCCCC2)cc1`, the percent span inhibition result is “inactive”.
Same read-out and setting: as for `C#CCOCCOCCOCCNc1nc(N2CCN(C(=O)[C@H](CCCCN)n3cc(CCCC)nn3)CC2)nc(N2CCN(C(=O)[C@H](Cc3ccc(O)cc3)n3cc(CCO)nn3)CC2)n1`, the entry is “inactive”.
Turning to `Cc1cc(C(=O)NCCCN(C)C)c2ccccc2n1`, the percent span inhibition entry was “inactive”.
As to `CNc1ccccc(C(=O)/C=C/c2ccccc2OC)c1=O`, the percent span inhibition result is “inactive”.
`CCCCCCn1nc(C(=O)Nc2nc3c(s2)CCCC3)c2ccccc2c1=O`: the percent span inhibition entry was “inactive”.
The same measure, in the same setting: to `CCCCC(=O)Nc1ccc(C(=O)N2CCC(C(=O)OCC)CC2)cc1` belongs “inactive”; to `COc1ccc(/C=C/C(=O)c2cc(Br)ccc(=O)c2O)cc1`, “inactive”; to `CC(C)=C1C(=O)NN(c2ccc(C)c(Cl)c2)C1=O`, “inactive”.
In the case of `Cc1ccc(-c2cc(-c3ccccc3)c(C#N)c(N)n2)o1`, the percent span inhibition result was “inactive”.
For `COc1ccc(-n2c(SCC(=O)Nc3ccc(C(=O)O)cc3)nnc2-c2cccs2)cc1`, the percent span inhibition result is “inactive”.
Regarding `CC(C)CCN1CCN(Cc2cccc3cccnc23)CC1CCO` (stereo not drawn), the percent span inhibition entry is “inactive”.
The same measure, in the same setting: as for `CCOc1ccc(C(=O)Nc2nnc(NC(=S)Nc3ccccc3)s2)cc1`, the entry is “inactive”; as for `CN(Cc1ccccc1)C(=O)c1[nH]cnc1C(=O)N[C@@H](CCCCNC(=O)OC(C)(C)C)C(=O)OC(C)(C)C`, “inactive”; as for `CN(C)C(=O)N1CCC(C(=O)NC2CCCCCCC2)CC1`, “inactive”.
Same read-out and setting: to `COc1ccc(S(=O)(=O)NCCSc2ccccc2)cc1OC` belongs “inactive”.
Turning to `O=C1NC(=O)C(=Cc2ccc(-c3cc(Cl)ccc3[N+](=O)[O-])o2)C(=O)N1`, the percent span inhibition entry was “inactive”.
Consider `O=C(Nc1ccccc1)c1ccc2nc(-c3ccco3)c(-c3ccco3)nc2c1`, for which the percent span inhibition result is “inactive”.
On the same count and under the same terms, as for `CNCc1ccccc1Sc1cc(O)ccc1O`, the entry is “inactive”; as for `Cc1ccc(Nc2nc(-c3ccccc3)c(CC(=O)O)s2)cc1`, “inactive”.
As to `CCCCC(C(=O)OCC)C(N)Cc1ccc(F)cc1` (stereo not drawn), the percent span inhibition entry was “inactive”.
The same measure, in the same setting: as for `COC(=O)CCC(=O)Nc1sc(C)c(C)c1C(N)=O`, the entry is “inactive”.
